# Laboratory results taken from US20150342933A1, “APORPHINE ALKALOID DERIVATIVE FOR […]-DEPENDENT PROTEIN KINASE” (ZIH YUAN TANG Biotechnology Co., Ltd, priority 2014, published 2015).
# Tested on: AMPK
# Test: AMPK phosphorylation in C2C12 myocytes (Western blot, Phospho-AMPKα Thr172)
# Type: cell-based, mouse
# Method: C2C12 skeletal myoblast cell line was purchased from the Food Industry Research and Development Institute (Hsinchu, Taiwan). The C2C12 cell line was a cell line obtained from culturing the leg skeletal muscle of adult C3H mice in a cell incubator under 95% […], 5% CO2, and 37° C. The cells were cultured in a DMEM medium (Gibco/Invitrogen, Carlsbad, Calif.) containing 4.5 mg/mL glucose, 10% fetal bovine serum (FBS; Gibco/Invitrogen, Carlsbad, Calif.), and an antibiotic solution (with final concentrations of penicillin=100 IU/mL and streptomycin=100 μg/mL). When the C2C12 myoblast cells have proliferated to cover seven-tenths of the area in the petri dish, the fetal bovine serum was replaced by 2% horse serum (Gibco/Invitrogen, Carlsbad, Calif.) so as to induce the C2C12 myoblast cells to become the multi-nuclei myocytes. The C2C12 myoblast cells differentiated into myocytes in 4 days, and the culture medium of the cells was replaced with no-serum DMEM 24 hours before the experiments so as to reduce metabolism of the cells.
# The C2C12 myocytes were treated respectively with 1 μM, 3 μM and 10 μM 1,10-dihydroxyaporphine hydrobromide for 5 and 15 minutes. Then the C2C12 myocytes were rinsed with PBS buffer solution, and RIPA buffer solution containing protease inhibitors (20 mM Tris-HCl (pH 7.4), 100 mM NaCl, 1 mM EDTA, 1 mM EGTA, 0.1% SDS, 0.5% sodium deoxycholate, 1% NP-40, and 100× protease inhibitor cocktail) was added into the cells. The cells were collected and centrifuged on ice. Then, the concentrations of the supernatant samples were adjusted to be the same.
# The supernatant samples were put through vertical electrophoresis isolation with 8% SDS-PAGE, and the isolated proteins were transferred onto a PVDF blotting membrane. After blotting was completed, the PVDF blotting membrane was removed and blocked for 1 hour under room temperature with a blocking buffer of TBST (Tris-buffered saline with Tween-20) with 5% non-fat milk. Then, the PVDF blotting membrane was placed into a 5% BSA and TBST solution containing the primary monoclonal antibodies Phospho-AMPKα (Thr172) (Cell Signaling) (1:1000) and AMPKα […] (Cell Signaling) (1:1000), respectively, and the primary immunoblotting reaction was performed under 4° C. Then, the PVDF blotting membrane was rinsed 3 times with TBST, and a TBST solution containing the secondary antibody goat anti-rabbit IgG (Perkin Elmer) (1:10000) was added to perform the secondary reaction for one hour under room temperature. Finally, the membrane was rinsed 3 times with TBST before ECL (enhanced chemiluminescence) was added to present color.
structure (smiles),measurement,setting,value
"Br.CN1CCc2ccc(O)c3c2C1Cc1ccc(O)cc1-3 (stereo not shown) [1,10-dihydroxyaporphine hydrobromide]","AMPK phosphorylation, times of that in the control cells","3 μM, 5 minutes",1.33 times
same,"AMPK phosphorylation, times of that in the control cells","3 μM, 15 minutes",1.21 times
same,"AMPK phosphorylation, times of that in the control cells","10 μM, 5 minutes",1.23 times
same,"AMPK phosphorylation, times of that in the control cells","10 μM, 15 minutes",1.65 times
